One assay deals with Escherichia coli. Put plainly: microbe, parasite or virus in culture.
The nature of assay [1]: microbe, parasite or virus in culture. The assay is classed as functional. The note with it: Mycobacterium tuberculosis.
In assay [2] the target is Heat shock protein HSP 90-alpha (Homo sapiens, UniProt P07900). The assay is classed as functional, organism-based.
The target in assay [3] is Induced myeloid leukemia cell differentiation protein Mcl-1 (Homo sapiens, UniProt Q07820). Format: functional.
The nature of assay [4]: THP-1 cell cytotoxicity, dose response, cytotoxicity control for non-replicating M. tuberculosis project (AID 489025). The assay is classed as functional.
Assay [5] deals with HEK293. Put plainly: cells. The conditions noted are these: Homo sapiens.
For the next assay, the target named is T1, Protein RecA (Mycobacterium tuberculosis, UniProt P9WHJ3).
T1 sequence (P9WHJ3 whole entry): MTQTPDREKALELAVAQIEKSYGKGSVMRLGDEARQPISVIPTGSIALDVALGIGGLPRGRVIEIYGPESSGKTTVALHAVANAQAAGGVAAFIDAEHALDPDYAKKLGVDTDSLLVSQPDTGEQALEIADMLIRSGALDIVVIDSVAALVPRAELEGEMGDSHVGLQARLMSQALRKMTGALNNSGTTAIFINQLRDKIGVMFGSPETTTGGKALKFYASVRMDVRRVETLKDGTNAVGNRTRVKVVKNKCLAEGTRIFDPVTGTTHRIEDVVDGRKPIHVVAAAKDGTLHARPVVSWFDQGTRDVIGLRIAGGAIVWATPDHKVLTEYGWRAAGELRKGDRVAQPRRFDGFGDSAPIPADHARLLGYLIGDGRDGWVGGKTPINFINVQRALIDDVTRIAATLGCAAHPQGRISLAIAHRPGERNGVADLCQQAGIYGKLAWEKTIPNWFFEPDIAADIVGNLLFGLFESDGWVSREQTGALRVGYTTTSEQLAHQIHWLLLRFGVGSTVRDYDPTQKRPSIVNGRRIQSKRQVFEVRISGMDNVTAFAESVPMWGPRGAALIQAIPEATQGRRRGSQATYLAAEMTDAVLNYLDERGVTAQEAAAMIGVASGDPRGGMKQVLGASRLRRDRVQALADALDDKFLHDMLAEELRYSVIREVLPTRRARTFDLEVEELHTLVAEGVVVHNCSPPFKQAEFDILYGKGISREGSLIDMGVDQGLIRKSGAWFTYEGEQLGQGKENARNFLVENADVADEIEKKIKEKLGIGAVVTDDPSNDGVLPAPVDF
The assay can be described thus: Fluorescence Cell-Free Homogeneous Dose Retest to Identify Inhibitors of RecA-Intein Splicing Activity. [Related pubchem assays (depositor defined):AID2097, AID2223, AID489010, AID492950]. Format: functional.

The target in assay [6] is T2, Replicative DNA helicase DnaB (Mycobacterium tuberculosis, UniProt P9WMR3).
T2 sequence (P9WMR3 whole entry): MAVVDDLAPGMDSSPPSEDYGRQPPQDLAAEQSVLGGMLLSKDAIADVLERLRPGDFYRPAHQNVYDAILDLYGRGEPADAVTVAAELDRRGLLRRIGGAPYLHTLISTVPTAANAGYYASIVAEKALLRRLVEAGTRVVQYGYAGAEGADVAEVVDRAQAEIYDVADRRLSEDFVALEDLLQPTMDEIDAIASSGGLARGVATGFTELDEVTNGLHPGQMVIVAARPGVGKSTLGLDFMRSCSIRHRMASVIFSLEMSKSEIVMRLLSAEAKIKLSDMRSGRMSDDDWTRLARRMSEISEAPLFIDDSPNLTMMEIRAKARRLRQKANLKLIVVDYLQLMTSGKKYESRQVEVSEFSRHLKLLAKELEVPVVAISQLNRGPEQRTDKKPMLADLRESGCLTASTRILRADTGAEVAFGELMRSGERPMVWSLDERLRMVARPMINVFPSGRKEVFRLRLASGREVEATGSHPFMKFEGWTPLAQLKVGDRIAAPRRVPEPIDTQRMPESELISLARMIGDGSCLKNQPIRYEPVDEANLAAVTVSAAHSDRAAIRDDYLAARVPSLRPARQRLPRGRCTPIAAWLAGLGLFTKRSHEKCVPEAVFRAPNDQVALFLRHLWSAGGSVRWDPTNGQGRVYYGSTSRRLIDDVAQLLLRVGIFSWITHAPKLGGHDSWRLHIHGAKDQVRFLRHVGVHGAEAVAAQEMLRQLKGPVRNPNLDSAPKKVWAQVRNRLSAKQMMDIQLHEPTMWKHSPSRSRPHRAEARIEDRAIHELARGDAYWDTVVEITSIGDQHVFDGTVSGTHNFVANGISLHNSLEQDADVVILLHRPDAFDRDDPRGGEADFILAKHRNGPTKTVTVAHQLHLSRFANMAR
Put plainly: DnaB intein splicing inhibitors, dose response, biochemical, cell-free fluorescence (AID 449749). The assay is classed as functional.

Assay [7] addresses T3, Microphthalmia-associated transcription factor (Homo sapiens, UniProt O75030).
T3 sequence (O75030 whole entry): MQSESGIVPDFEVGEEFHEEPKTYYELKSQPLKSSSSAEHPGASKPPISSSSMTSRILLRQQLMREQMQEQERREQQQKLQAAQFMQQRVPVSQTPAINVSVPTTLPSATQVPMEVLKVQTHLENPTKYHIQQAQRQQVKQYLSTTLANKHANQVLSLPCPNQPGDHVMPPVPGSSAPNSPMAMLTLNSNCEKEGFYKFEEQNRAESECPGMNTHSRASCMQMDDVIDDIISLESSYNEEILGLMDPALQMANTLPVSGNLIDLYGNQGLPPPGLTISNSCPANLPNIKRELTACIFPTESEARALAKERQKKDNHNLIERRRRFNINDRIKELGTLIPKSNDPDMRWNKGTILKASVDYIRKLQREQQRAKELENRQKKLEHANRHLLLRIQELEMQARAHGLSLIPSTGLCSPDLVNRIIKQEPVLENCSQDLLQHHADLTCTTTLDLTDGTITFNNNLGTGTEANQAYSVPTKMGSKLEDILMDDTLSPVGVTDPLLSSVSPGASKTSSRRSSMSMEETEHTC
The assay can be described thus: reducers of TRPM1 reporter luminescence, concentration series – cell-based, SK-MEL-5, cherry-picked, set 3, MITF inhibitor project, dose response (AID 493073).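 Note: SK-MEL-5 melanoma cells with luciferase driven by the MITF target TRPM1 promoter.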 The assay is classed as functional.

The test system of assay [8] is HEK293. Put plainly: cells. The conditions noted are these: Homo sapiens. This is another data set of the same source.
Another assay can be described thus: cells. The assay is classed as functional.
Assay [9] is described as follows: HepG2 cell cytotoxicity, dose response, cytotoxicity control for non-replicating M. tuberculosis project (AID 489018). The assay is classed as functional. The note with it: Mycobacterium tuberculosis.
A further assay relates to HeLa. Put plainly: ATP-based viability loss in HeLa cells – cell-based, CellTiter-Glo luminescence, cherry-pick samples, cytotoxicity control for MITF activator project, dose response (AID 540259). Format: functional. The note with it: Homo sapiens. A general note: ATP-based viability assays read luminescence as a measure of living cells.

Active and inactive are the calls of the source.

Chain of Induced myeloid leukemia cell differentiation protein Mcl-1 (Q07820 whole entry): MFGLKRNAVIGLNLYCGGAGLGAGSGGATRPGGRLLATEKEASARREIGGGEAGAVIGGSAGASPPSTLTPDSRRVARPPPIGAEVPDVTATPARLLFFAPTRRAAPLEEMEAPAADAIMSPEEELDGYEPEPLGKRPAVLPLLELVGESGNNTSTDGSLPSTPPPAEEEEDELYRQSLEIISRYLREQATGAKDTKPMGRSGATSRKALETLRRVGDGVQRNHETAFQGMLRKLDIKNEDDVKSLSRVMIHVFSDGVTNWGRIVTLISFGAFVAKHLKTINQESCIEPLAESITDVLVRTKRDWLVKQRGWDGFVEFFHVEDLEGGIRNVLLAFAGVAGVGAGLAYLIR

By AC50 is commonly meant the concentration at which the activity in the assay is half-maximal. Consider `COc1ccc(OC2OC3COC(c4ccco4)OC3C(O)C2NC(C)=O)cc1` (stereo unspecified), for which the AC50 in the assay with Escherichia coli is 32.1 µM (active).

In the case of `CC(C(=O)NC1CCCC1)N1CCN(S(=O)(=O)c2ccc(C(C)(C)C)cc2)CC1` (stereo unspecified), the AC50 in the assay on Escherichia coli was 70.4 µM (active).

With `Cc1ccc(CNC(=O)C2CCCN2C(=O)Nc2ccccc2)cc1` (stereo unspecified), the AC50 with Escherichia coli was 33.2 µM (active).

A word on the IC50: it is the midpoint of a concentration-inhibition curve. One may read the EC50 as the concentration that produces a half-maximal response. In the case of `O=C1Nc2ccc(Br)cc2/C1=C/C(=O)c1ccc2c(c1)OCO2`, the CC50 in assay [1] was 32.2 µM (active); in assay [4], 11.9 µM (active); in assay [9] it was 18.9 µM (active). In addition, the half-maximal activity concentration (AC50) in assay [2] was 2.17 µM (active); in [6], 36.3 µM (active); in assay [7], 25.5 µM (active). Besides, the values for the IC50 (in assay [3]; in the assay “cells”) were 1.29 µM (active) and 15.2 µM (active), respectively. The EC50 with HEK293 [5] is > 59.6 µM (inactive); at Protein RecA, 1.46 µM (active); with HEK293 [8], > 59.6 µM (inactive).

`CN(C1=NC(=O)/C(=C2\C(=O)Nc3ccccc32)S1)c1ccc(O)cc1`: the AC50 with HeLa was 45.4 µM (active).

On to `COc1ccc2[nH]c(-c3ccccc3)cc2c1`, for which the AC50 in the assay with HeLa is 55.1 µM (active).
